Earlier results on 1 compound are cited in patent US20230012071A1, “MODIFIED RELEASE PHARMACEUTICAL COMPOSITIONS OF RIOCIGUAT” (ZYDUS LIFESCIENCES LIMITED, priority 2019, published 2023).

For the data set the following is noted: existing marketed immediate release tablet.

As to `COC(=O)N(C)c1c(N)nc(-c2nn(Cc3ccccc3F)c3ncccc23)nc1N`, the absolute bioavailability result was “about 94%” and the “time at which peak plasma concentrations are observed following drug administration” value is no more than 1.5 h.
